These results are taken from PubChem BioAssay (NCI).

Experiment in all cases: inhibition of tumour cell growth, NCI panel, 48 h
The test system of experiment [1] is SR leukemia.
The test system of experiment [2] is COLO 205 colon.
The subject of experiment [3] is NCI-H522 lung.
The subject of experiment [4] is TK-10 renal.
Experiment [5] deals with UO-31 renal.
For experiment [6], the system named is CCRF-CEM leukemia.
Experiment [7] has as its system SK-MEL-5 melanoma.
In experiment [8] the test system is LOX IMVI melanoma.
Experiment [9] has as its system SK-OV-3 ovarian.
In experiment [10] the test system is T-47D breast.

Molecules are shown by their SMILES.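 Test compounds were applied to cells in 96-well plates for 48 hours at 5 doses. TGI denotes the concentration required for complete inhibition of growth.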 Where only a bound is given, the exact number is not on record here.

Consider `CC(=O)N(C)c1ccc(Nc2cc(C)[nH]c3ccc4ncnc4c23)cc1`, for which the TGI came to 23 µM in experiment [1]; 16 µM in experiment [2]; 21.6 µM in [3]; 48.3 µM in experiment [4]; 56.3 µM in experiment [5]; 34.9 µM in experiment [6]. Further, the TGI in experiment [7] was found to be 17.7 µM; in [8], 15.9 µM; in experiment [9], 35.8 µM; in experiment [10], 39.6 µM.

Regarding `O=C1NC(=O)C(c2c[nH]c3ccccc23)=C1c1cnc[nH]1`, the TGI in experiment [1], in experiment [2], in experiment [3], in experiment [4], in experiment [5] and in experiment [6] was greater than 100 µM throughout. In addition, the TGI in experiment [7] is 78.1 µM; in [8], greater than 100 µM; in [9], greater than 100 µM; in [10], greater than 100 µM.

As to `CCOC(=O)c1c(NC(=O)c2cccs2)sc2c1CCCC2`, the TGI in experiment [1] was greater than 100 µM; in experiment [2] it was greater than 100 µM; in [3], greater than 100 µM; in experiment [4], greater than 86.1 µM; in experiment [5], greater than 100 µM; in experiment [6] it was greater than 100 µM. Also, the TGI in experiment [7] was greater than 100 µM; in [8], greater than 100 µM; in experiment [9] it was 79.5 µM; in experiment [10], greater than 100 µM.

As to `C/C(=N\NC(=S)N1CCCCC1)c1nc2ncccc2[nH]1`, the TGI in experiment [1] was 28.6 µM; in [2] it was greater than 100 µM; in [3] it was 30.7 µM; in experiment [4], 68.4 µM; in experiment [5], greater than 100 µM; in experiment [6], 17.2 µM. Besides, the TGI in experiment [7] is 12.3 µM; in [8] it was greater than 100 µM; in [9], greater than 100 µM; in experiment [10], 42.4 µM.

`O=C(NC(Cc1c[nH]c2ccccc12)C(=O)Nc1ccc(Br)cc1)OCc1ccccc1` (stereo not given): the TGI in experiment [1] came to 47.4 µM; in experiment [2], 24.7 µM; in experiment [3], 28.6 µM; in experiment [4] it was 52.8 µM; in experiment [5], 27.4 µM; in experiment [6] it was 36 µM. Besides, the TGI in experiment [7] turned out to be 22.5 µM; in [8], 22.7 µM; in experiment [9], 46.3 µM; in [10], 53 µM.

As to `COC(=O)C1=C(C)NC2=C(C(=O)c3ccccc32)C1c1cn(-c2ccccc2)nc1-c1ccccc1` (stereo not given), the TGI in experiment [1] is greater than 21.6 µM; in [2], greater than 100 µM; in [3], greater than 100 µM; in experiment [4], greater than 100 µM; in experiment [5] it was greater than 100 µM; in experiment [6], greater than 100 µM. Further, the TGI in experiment [7], in experiment [8], in [9] and in experiment [10] was greater than 100 µM each time.

On to `FC(F)(F)c1ccc(N=C/C=C(/Nc2ccc(C(F)(F)F)cc2)c2ccc(Cl)cc2)cc1`, for which the TGI in experiment [1] is greater than 100 µM; in experiment [2] it was 32.6 µM; in experiment [3] it was 31.3 µM; in [4], 69.1 µM; in experiment [5], greater than 100 µM; in experiment [6] it was greater than 100 µM. In addition, the TGI in experiment [7] is 22.2 µM; in experiment [8] it was 19.3 µM; in [9], 39.1 µM; in experiment [10], 39.9 µM.

Consider `N#Cc1nc2ccccc2nc1N1CCN(c2ccc([N+](=O)[O-])cc2)CC1`, for which the TGI in experiment [1], in [2], in [3], in experiment [4], in experiment [5] and in [6] was greater than 100 µM throughout. For the same compound, the TGI in experiment [7], in experiment [8], in [9] and in [10] was greater than 100 µM throughout.

For the compound `Cc1cc(C)nc(NC(=O)c2ccc(Br)s2)c1`, the TGI in experiment [1] was greater than 100 µM; in experiment [2], 23.5 µM; in experiment [3], greater than 100 µM; in experiment [4], greater than 100 µM; in experiment [5] it was greater than 100 µM; in [6] it was 15.6 µM. In addition, the TGI in experiment [7] was 17.6 µM; in experiment [8], greater than 100 µM; in experiment [9], greater than 100 µM; in experiment [10], greater than 100 µM.
